Data published in patent US20220362168A1, “ADMINISTRATION REGIMES OF CANNABINOIDS IN COMBINATION WITH CHEMOTHERAPEUTICS AGAINST CANCER” (priority 2019, published 2022).
Entries after “also recorded” stand apart in the source; their conditions may differ.

Assays:
cancer patients = assay: Clinical outcome of 119 cancer patients given synthetic pharmaceutical-grade CBD; assay type: in vivo, human; conditions: for Extended median survival / Stable disease / Died / No effect/result / Slowed progression / Tumour free: number of patients
Description: Patients were given synthetic, pharmaceutical-grade CBD (STI Pharmaceuticals), registered under the Pharmaceutical Specials scheme in oily drops at 5% (w/v) in 20 ml bottles. Each drop contained 1 mg of synthetic CBD in neutral oil. This was prescribed on an informed consent basis. 119 cancer patients decided to have this treatment (Table 1), and most of them had metastatic cancers. Of the 119 patients, 28 were given CBD as the only treatment.
(§1) The majority of the patients were assessed using a circulating tumour cell test before and after treatment, since this is cheaper than carrying out repeated scans. A number of patients however, as a matter of a normal treatment course, had relevant scans.
The average dose was 10 mg twice a day. For increased tumour mass, the dose was increased, in some cases up to 30 drops twice a day (30 mg). In a number of cases where stable disease was present, the dose was reduced to five drops twice a day (5 mg). In some cases, Sativex, which is licensed for use in multiple sclerosis, was used in conjunction with CBD as a source of THC, which synergises with CBD. A fraction of the dose used for multiple sclerosis was used. […] Some of the patients reverted to Cannabis oil bought on the Internet, and following this, 80% of these cases relapsed.
(§2) The minimum duration of treatment required for CBD was six months, but many continued for longer. Less than six months appeared inadequate and had little effect, and therefore cases in which CBD was used for less than six months have been defined as un-assessable, and not included in the current cohort of 119 cases.

[1] = system: circulating tumour cells (CTCs); assay: Circulating tumour cell test before and after treatment; assay type: in vivo, human; conditions: for Circulating tumour cells (CTCs): CBD only
Description: as §1

tumour = assay: Scans and examination of tumour in individual patients; assay type: in vivo, human
Description: as §1
Clear objective evidence of potential efficacy was sought where no other treatment option was available. The most impressive case was a patient with an anaplastic ependymoma, a very rare brain tumour. The patient had had all standard treatments, surgery on two occasions followed by chemotherapy and conformal photon radiotherapy. No further treatment options were available to them when treatment on CBD started.
Another impressive case was a patient with progressive tanycytic ependymoma Grade 2, treated with biopsy and radical radiotherapy for two years. They refused chemotherapy, and had no further treatment options. They started on pharmaceutical-grade synthetic CBD a year after radiotherapy ended, at a dose of 10 drops twice a day, three days on and three days off (10 mg). Prior to this they had been taking, for some time, metformin, mebendazole, doxycycline and atorvastatin from an oncology clinic in Central London.
At that point the patient stopped taking pharmaceutical-grade synthetic CBD and switched to Cannabis oil extract obtained from an internet website. […] They have since restarted pharmaceutical-grade synthetic CBD and throughout continued to take the metformin, atorvastatin, doxycycline and mebendazole. So, the only change had been stopping the pharmaceutical-grade synthetic CBD and switching to Cannabis oil extract obtained on the Internet.

[2] = system: adenocarcinoma cancer cell line; assay: Cell viability by cell counting with trypan blue (Example 2); assay type: cell-based; conditions: 0.1, 1 or 10 μM, 48 h, FIG. 1
Text: An adenocarcinoma cancer cell line, growing exponentially, was reset at a concentration of 1×10^4/ml and allowed to adhere overnight.

[3] = Side effects / tolerated dose in patients; assay type: in vivo, human; conditions: cancer patients, up to 30 mg twice a day; maximum tolerated dose unable to be defined
Text: as §2

pERK = pERK western blotting relative to GAPDH (Example 3); assay type: cell-based; conditions: 100 nM, 1 μM or 10 μM, 48 h, FIG. 2, higher levels of CBD
Description: An adenocarcinoma cell line, growing exponentially, was reset at a concentration of 1×10^4/ml and allowed to adhere overnight. Cannabidiol (CBD) was added at 100 nM, 1 μM, or 10 μM, and cells were harvested for standard western blotting techniques after 48 h. Immunoprobing was performed using anti-pERK antibodies, and the densities of each band determined. These values were then expressed relative to a GAPDH loading control.

[4] = Glioblastoma multiforme, 7 total cases
[5] = Miscellaneous cancers, 15 total cases
[6] = Non-Hodgkin's lymphoma, 8 total cases
[7] = Non-small cell lung, 2 total cases
[8] = Total of all cancer types, 119 total cases

**Q.** For C=C(C)[C@@H]1CCC(C)=C[C@H]1c1c(O)cc(CCCCC)cc1O [CBD, cannabidiol], which Clinical status (cancer patients; 62/female breast cancer, CBD only, no symptoms) is on record?
**A.** currently stable

**Q.** And the Time to death (cancer patients; 65/female oesophageal cancer, CBD only treatment, expected survival of three months)?
**A.** weight. They died 14 months later.

**Q.** And the Clinical condition (cancer patients; 65/female oesophageal cancer, CBD only treatment, six months later, regained weight)?
**A.** treatments and investigations. We last saw their six months later when they were looking well and had in fact regained

**Q.** And the Extended median survival (cancer patients; Anaplastic ependymoma, 3 total cases)?
**A.** 3

**Q.** What about the Extended median survival (cancer patients; Bladder, 2 total cases) of the same molecule?
**A.** 1

**Q.** And the Stable disease (cancer patients; Bladder, 2 total cases)?
**A.** 1

**Q.** And the Died (cancer patients; Breast, 39 total cases)?
**A.** 6

**Q.** What about the Extended median survival (cancer patients; Breast, 39 total cases) of the same molecule?
**A.** 8

**Q.** What about the No effect/result (cancer patients; Breast, 39 total cases) of the same molecule?
**A.** 3

**Q.** What about the Slowed progression (cancer patients; Breast, 39 total cases) of the same molecule?
**A.** 3

**Q.** What about the Stable disease (cancer patients; Breast, 39 total cases) of the same molecule?
**A.** 21

**Q.** What about the Tumour free (cancer patients; Breast, 39 total cases) of the same molecule?
**A.** 7

**Q.** And the “Effect of short treatment duration” value (cancer patients; CBD used for less than six months)?
**A.** little effect

**Q.** And the Died (cancer patients; Colorectal, 13 total cases)?
**A.** 6

**Q.** What about the Extended median survival (cancer patients; Colorectal, 13 total cases) of the same molecule?
**A.** 9

**Q.** And the No effect/result (cancer patients; Colorectal, 13 total cases)?
**A.** 1

**Q.** What about the Slowed progression (cancer patients; Colorectal, 13 total cases) of the same molecule?
**A.** 1

**Q.** What about the Tumour free (cancer patients; Colorectal, 13 total cases) of the same molecule?
**A.** 1

**Q.** What about the Extended median survival (cancer patients; DIPG, 1 total case) of the same molecule?
**A.** 1

**Q.** What about the Died (cancer patients; [4]) of the same molecule?
**A.** 3

**Q.** What about the Extended median survival (cancer patients; [4]) of the same molecule?
**A.** 4

**Q.** And the Tumour free (cancer patients; Head and Neck, 2 total cases)?
**A.** 1

**Q.** And the Died (cancer patients; [5])?
**A.** 1

**Q.** What about the Extended median survival (cancer patients; [5]) of the same molecule?
**A.** 5

**Q.** What about the No effect/result (cancer patients; [5]) of the same molecule?
**A.** 1

**Q.** What about the Slowed progression (cancer patients; [5]) of the same molecule?
**A.** 1

**Q.** And the Stable disease (cancer patients; [5])?
**A.** 6

**Q.** And the Tumour free (cancer patients; [5])?
**A.** 2

**Q.** And the Stable disease (cancer patients; Neuroendocrine, 1 total case)?
**A.** 1

**Q.** And the Died (cancer patients; [6])?
**A.** 1

**Q.** What about the Stable disease (cancer patients; [6]) of the same molecule?
**A.** 6

**Q.** And the Tumour free (cancer patients; [6])?
**A.** 1

**Q.** What about the Died (cancer patients; [7]) of the same molecule?
**A.** 2

**Q.** What about the Extended median survival (cancer patients; [7]) of the same molecule?
**A.** 2

**Q.** What about the Died (cancer patients; Ovarian, 6 total cases) of the same molecule?
**A.** 3

**Q.** And the Extended median survival (cancer patients; Ovarian, 6 total cases)?
**A.** 5

**Q.** What about the Slowed progression (cancer patients; Ovarian, 6 total cases) of the same molecule?
**A.** 1

**Q.** And the Died (cancer patients; Pancreatic, 4 total cases)?
**A.** 2

**Q.** What about the Extended median survival (cancer patients; Pancreatic, 4 total cases) of the same molecule?
**A.** 2

**Q.** What about the Died (cancer patients; Prostate, 16 total cases) of the same molecule?
**A.** 3

**Q.** What about the Extended median survival (cancer patients; Prostate, 16 total cases) of the same molecule?
**A.** 3

**Q.** And the Stable disease (cancer patients; Prostate, 16 total cases)?
**A.** 10

**Q.** What about the Died (cancer patients; [8]) of the same molecule?
**A.** 27

**Q.** What about the Extended median survival (cancer patients; [8]) of the same molecule?
**A.** 43

**Q.** And the No effect/result (cancer patients; [8])?
**A.** 5

**Q.** And the Slowed progression (cancer patients; [8])?
**A.** 8

**Q.** And the Stable disease (cancer patients; [8])?
**A.** 45

**Q.** What about the Tumour free (cancer patients; [8]) of the same molecule?
**A.** 12

**Q.** What about the “Clinical effectiveness of dosing pattern” value (cancer patients; three days on and three days off versus continuous dose) of the same molecule?
**A.** more effective

**Q.** What about the “Circulating tumour cells (CTCs), first tests” value ([1]; 62/female breast cancer, CBD as only treatment, when first seen) of the same molecule?
**A.** tests which showed 10.6 cells per 7.5 ml. Subsequent tests 9 months later, 12 months later, two years later and

**Q.** What about the “Circulating tumour cells (CTCs)” value ([1]; 62/female breast cancer, 9 months later) of the same molecule?
**A.** 7.3 cells/7.5 ml

**Q.** What about the “Circulating tumour cells (CTCs)” value ([1]; 62/female breast cancer, 12 months later) of the same molecule?
**A.** 6.8 cells/7.5 ml

**Q.** What about the “Circulating tumour cells (CTCs)” value ([1]; 67/female lobular breast cancer, 12 months later) of the same molecule?
**A.** 7.5 cells/7.5 ml

**Q.** What about the “Circulating tumour cells (CTCs)” value ([1]; 67/female lobular breast cancer, 18 months later) of the same molecule?
**A.** 6.8 cells/7.5 ml

**Q.** What about the “Circulating tumour cells (CTCs)” value ([1]; 67/female lobular breast cancer, 30 months later) of the same molecule?
**A.** 3.0 cells/7.5 ml

**Q.** And the “Circulating tumour cells (CTCs), initial” value ([1]; 67/female lobular breast cancer, initial)?
**A.** method of treatment. Initial CTCs were 9.3 cells per 7.5 ml. Follow-up measurements 12 months later, 18 months

**Q.** And the “Circulating tumour cells (CTCs), initial” value ([1]; 72/male prostate cancer, initial value before CBD effect)?
**A.** 8.1 cells/7.5 ml

**Q.** And the “Circulating tumour cells (CTCs)” value ([1]; breast cancer, three years later)?
**A.** 3.9 cells/7.5 ml

**Q.** What about the “Circulating tumour cells (CTCs)” value ([1]; breast cancer, two years later) of the same molecule?
**A.** 5.0 cells/7.5 ml

**Q.** And the “Circulating tumour cells (CTCs), first reduction” value ([1]; patient prostate cancer, CBD alone 10 mg twice a day, three days on/off)?
**A.** 5.9 cells/7.5 ml

**Q.** What about the “Tumour diameter in left breast” value (tumour; 65/female breast cancer, initially 15 cm, CBD plus half course of radiotherapy, last appointment) of the same molecule?
**A.** treatment course. They have continued on CBD alone and on their last appointment the tumour in their left breast was 2 cm

**Q.** And the Axillary nodes (tumour; 65/female breast cancer, initially palpable left axillary nodes, last appointment)?
**A.** cm in diameter, with no palpable axillary nodes.

**Q.** What about the Subsequent scans (tumour; 68/female breast cancer with bone metastases, CBD following local radiotherapy) of the same molecule?
**A.** subsequent scans showed stable disease. They have had no treatment other than CBD following radiotherapy.

**Q.** And the Subsequent scans (tumour; person, anaplastic ependymoma, CBD only treatment)?
**A.** disease stability

**Q.** What about the “Decrease of tumour volume (scan)” value (tumour; person, anaplastic ependymoma, CBD only treatment, after ten months) of the same molecule?
**A.** ~60%

**Q.** What about the Scan result (tumour; person, tanycytic ependymoma Grade 2, 10 mg twice a day three days on/off, six months) of the same molecule?
**A.** tumour reduction

**Q.** What about the “Viability of cancer cells” value [2] of the same molecule?
**A.** inactive; also recorded: unaffected

**Q.** And the Side effects [3]?
**A.** complete absence of side effects

**Q.** What about the “pERK relative to controls” value (pERK) of the same molecule?
**A.** increased
